# Like-named read-outs stand apart in the source and are kept apart here.
# Columns and labels:
# [1] = target: T1, human somatostatin receptor subtype 5 (Homo sapiens, UniProt P35346); assay: cAMP assay for SST5R (inhibition of cAMP in CHO-K1 cells); type: cell-based; settings: for EC50: inhibition of cAMP via human SST5 receptor, read-out: SST5 potency; for Fold selectivity for SST5 vs SST2: class symbols, SST5 receptor over SST2 receptor
# T1 construct: expressed in transfected cells
# How it was run: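 CHO-K1 cells stably expressing human SSTR5 were treated 20 min at 37 °C with compounds plus 1.6 μM NKH477 in HBSS, 0.5 mM HEPES pH 7.4, 0.1% BSA, 0.2 mM IBMX. Lysate cAMP measured by HTRF against a standard curve; EC50 from cAMP-versus-concentration plots.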
# [2] = target: T2, human somatostatin receptor subtype 2 (Homo sapiens, UniProt P30874); assay: cAMP assay for SST2R (inhibition of cAMP in CHO-K1 cells); type: cell-based; settings: Table B; inhibition of cAMP via human SST2 receptor; read-out: SST2 potency
# T2 construct: expressed in transfected cells
# Source text: General overview: All five SSTR subtypes are Gi coupled G-protein coupled receptors (GPCRs) that lead to decreases in intracellular cyclic AMP (cAMP) when activated by an agonist. Therefore, measurement of intracellular cAMP levels can be used to assess whether compounds of the invention are agonists of SSTR subtypes (John Kelly, Troy Stevens, W. Joseph Thompson, and Roland Seifert, Current Protocols in Pharmacology, 2005, 2.2.1-2.2). One example of an intracellular cAMP assay is described below.
# cAMP Assay Protocol for SST2R:
# Four days prior to the assay, 5,000 Chinese hamster ovary cells (CHO-K1, ATCC #CCL-61) stably expressing the human somatostatin receptor subtype 2 are plated in each well of a 96-well tissue culture-treated plate in Ham's F12 growth media (ThermoFisher #10-080-CM) supplemented with 10% donor bovine serum (Gemini Bio-Products #100-506), 100 U/mL penicillin; 100 μg/mL streptomycin; 2 mM L-glutamine (Gemini Bio-Products #400-110) and 0.2 mg/mL hygromycin B (GoldBio #31282-04-9). The cells are cultured at 37° C., 5% CO2 and 95% humidity. On the day of the assay, the media is aspirated and the cells are treated with 50 μL of 1.6 μM NKH477 (Sigma #N3290) plus various dilutions of compounds of the invention in assay buffer [1× Hank's Balanced Salt Solution (ThermoFisher #SH3058802), 0.5 mM HEPES pH 7.4, 0.1% bovine serum albumin, 0.2 mM 3-Isobutyl-1-methylxanthine (IBMX, VWR #200002-790)]. The cells are incubated for 20 minutes at 37° C. […] The cells are treated with 50 μL of lysis buffer (HRTF cAMP kit, Cisbio). The lysate is transferred to 384-well plates and cAMP detection and visualization antibodies are added and incubated for 1-24 hours at room temperature. The time-resolved fluorescent signal is read with a Tecan M1000Pro multiplate reader. The intracellular cAMP concentrations are calculated by regression to a standard curve and are plotted vs. the concentration of the compounds of the invention and the EC50 of the compounds are calculated using standard methods. All data manipulations are in GraphPad Prism v6 or v7.
# T2 sequence (P30874 whole entry): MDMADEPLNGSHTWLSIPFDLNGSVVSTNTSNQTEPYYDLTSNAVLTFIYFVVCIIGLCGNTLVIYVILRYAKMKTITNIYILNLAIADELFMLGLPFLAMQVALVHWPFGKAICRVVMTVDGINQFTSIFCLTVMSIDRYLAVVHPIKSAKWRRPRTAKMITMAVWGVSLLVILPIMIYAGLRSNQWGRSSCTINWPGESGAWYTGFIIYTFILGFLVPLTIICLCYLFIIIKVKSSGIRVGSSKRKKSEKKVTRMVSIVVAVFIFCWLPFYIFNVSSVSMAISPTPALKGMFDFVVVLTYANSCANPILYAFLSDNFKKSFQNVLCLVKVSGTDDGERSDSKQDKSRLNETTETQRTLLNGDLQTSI
# T1 sequence (P35346 whole entry): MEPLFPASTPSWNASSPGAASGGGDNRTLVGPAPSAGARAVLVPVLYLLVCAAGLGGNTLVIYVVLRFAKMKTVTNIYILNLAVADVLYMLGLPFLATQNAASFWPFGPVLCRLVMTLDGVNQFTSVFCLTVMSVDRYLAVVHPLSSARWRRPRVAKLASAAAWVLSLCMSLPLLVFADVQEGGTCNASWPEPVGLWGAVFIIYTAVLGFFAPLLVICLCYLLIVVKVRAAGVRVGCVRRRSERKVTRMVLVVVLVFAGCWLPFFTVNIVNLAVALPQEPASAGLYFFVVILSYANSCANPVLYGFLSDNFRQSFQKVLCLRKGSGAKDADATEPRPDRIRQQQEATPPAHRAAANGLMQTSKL
SMILES,EC50 ([1]; Table A),Fold selectivity for SST5 vs SST2 ([1]; Table B),EC50 ([1]; Table B),EC50 [2]
"N#Cc1ncc(C(=O)NC2CCC(F)(F)CC2)c(N2CC[C@H](N)C2)c1-c1cc(F)cc(F)c1 [1-67, 4-[(3S)-3-aminopyrrolidin-1-yl]-6-cyano-N-(4,4-difluorocyclohexyl)-5-(3,5-difluorophenyl)pyridine-3-carboxamide]",< 10 nM,+++ (+++=>500),< 10 nM,> 1000 nM
"N#Cc1ncc(C(=O)NC2CC(F)(F)C2)c(N2CC[C@H](N)C2)c1-c1cc(F)cc(F)c1 [1-68, 4-[(3S)-3-aminopyrrolidin-1-yl]-6-cyano-N-(3,3-difluorocyclobutyl)-5-(3,5-difluorophenyl)pyridine-3-carboxamide]",< 10 nM,+++ (+++=>500),< 10 nM,> 1000 nM
"C[C@H](NC(=O)c1cnc(C#N)c(-c2cc(F)cc(F)c2)c1N1CC[C@H](N)C1)C1CC1 [1-69, 4-[(3S)-3-aminopyrrolidin-1-yl]-6-cyano-N-[(1S)-1-cyclopropylethyl]-5-(3,5-difluorophenyl)pyridine-3-carboxamide]",< 10 nM,+++ (+++=>500),< 10 nM,100 to 1000 nM
"N#Cc1ncc(C(=O)NC(C2CC2)C2CC2)c(N2CC[C@H](N)C2)c1-c1cc(F)cc(F)c1 [1-70, 4-[(3S)-3-aminopyrrolidin-1-yl]-6-cyano-N-(dicyclopropylmethyl)-5-(3,5-difluorophenyl)pyridine-3-carboxamide]",< 10 nM,+++ (+++=>500),< 10 nM,> 1000 nM
"C[C@H](NC(=O)c1cnc(C#N)c(-c2cc(F)cc(F)c2)c1N1CC[C@H](N)C1)C(F)(F)F [1-71, 4-[(3S)-3-aminopyrrolidin-1-yl]-6-cyano-5-(3,5-difluorophenyl)-N-[(2S)-1,1,1-trifluoropropan-2-yl]pyridine-3-carboxamide]",< 10 nM,+++ (+++=>500),< 10 nM,100 to 1000 nM
"CCC(CC)NC(=O)c1cnc(C#N)c(-c2cc(F)cc(F)c2)c1N1CC[C@H](N)C1 [1-72, 4-[(3S)-3-aminopyrrolidin-1-yl]-6-cyano-5-(3,5-difluorophenyl)-N-(pentan-3-yl)pyridine-3-carboxamide]",< 10 nM,+++ (+++=>500),< 10 nM,100 to 1000 nM
"N#Cc1ncc(C(=O)NC2CCCCCC2)c(N2CC[C@H](N)C2)c1-c1cc(F)cc(F)c1 [1-73, 4-[(3S)-3-aminopyrrolidin-1-yl]-6-cyano-N-cycloheptyl-5-(3,5-difluorophenyl)pyridine-3-carboxamide]",< 10 nM,+++ (+++=>500),< 10 nM,> 1000 nM
"Cc1ncc(C(=O)NC23CC(C2)C3)c(N2CC[C@](C)(N)C2)c1-c1cc(F)cc(F)c1 [1-74, 4-[(3S)-3-amino-3-methylpyrrolidin-1-yl]-N-{bicyclo[1.1.1]pentan-1-yl}-5-(3,5-difluorophenyl)-6-methylpyridine-3-carboxamide]",< 10 nM,+++ (+++=>500),< 10 nM,> 1000 nM

# Results, then the compound that gave them:
EC50 ([1]; Table A),Fold selectivity for SST5 vs SST2 ([1]; Table B),EC50 ([1]; Table B),EC50 [2],SMILES
< 10 nM,++ (++=100 to 499),< 10 nM,10 to 100 nM,"C[C@H](NC(=O)c1cncc(-c2cc(F)cc(F)c2)c1N1CC[C@](C)(N)C1)C1CC1 [1-41, 4-[(3S)-3-amino-3-methylpyrrolidin-1-yl]-N-[(1S)-1-cyclopropylethyl]-5-(3,5-difluorophenyl)pyridine-3-carboxamide]"
< 10 nM,++ (++=100 to 499),< 10 nM,100 to 1000 nM,"C[C@@H](NC(=O)c1cncc(-c2cc(F)cc(F)c2)c1N1CC[C@](C)(N)C1)C1CC1 [1-44, 4-[(3S)-3-amino-3-methylpyrrolidin-1-yl]-N-[(1R)-1-cyclopropylethyl]-5-(3,5-difluorophenyl)pyridine-3-carboxamide]"
< 10 nM,+++ (+++=>500),< 10 nM,100 to 1000 nM,"C[C@]1(N)CCN(c2c(C(=O)NCC3(F)CCC3)cncc2-c2cc(F)cc(F)c2)C1 [1-47, 4-[(3S)-3-amino-3-methylpyrrolidin-1-yl]-5-(3,5-difluorophenyl)-N-[(1-fluorocyclobutyl)methyl]pyridine-3-carboxamide]"
< 10 nM,+++ (+++=>500),< 10 nM,100 to 1000 nM,"C[C@]1(N)CCN(c2c(C(=O)NC3CCC(F)(F)CC3)cnc(C#N)c2-c2cc(F)cc(F)c2)C1 [1-48, 4-[(3S)-3-amino-3-methylpyrrolidin-1-yl]-6-cyano-N-(4,4-difluorocyclohexyl)-5-(3,5-difluorophenyl)pyridine-3-carboxamide]"
< 10 nM,+++ (+++=>500),< 10 nM,100 to 1000 nM,"C[C@]1(N)CCN(c2c(C(=O)NC34CC(C3)C4)cnc(C#N)c2-c2cc(F)cc(F)c2)C1 [1-49, 4-[(3S)-3-amino-3-methylpyrrolidin-1-yl]-N-{bicyclo[1.1.1]pentan-1-yl}-6-cyano-5-(3,5-difluorophenyl)pyridine-3-carboxamide]"
< 10 nM,+++ (+++=>500),< 10 nM,100 to 1000 nM,"C[C@]1(N)CCN(c2c(C(=O)NC(C3CC3)C3CC3)cncc2-c2cc(F)cc(F)c2)C1 [1-51, 4-[(3S)-3-amino-3-methylpyrrolidin-1-yl]-N-(dicyclopropylmethyl)-5-(3,5-difluorophenyl)pyridine-3-carboxamide]"
< 10 nM,++ (++=100 to 499),< 10 nM,100 to 1000 nM,"C[C@H](NC(=O)c1cncc(-c2cc(F)cc(F)c2)c1N1CC[C@](C)(N)C1)C(F)(F)F [1-54, 4-[(3S)-3-amino-3-methylpyrrolidin-1-yl]-5-(3,5-difluorophenyl)-N-[(2S)-1,1,1-trifluoropropan-2-yl]pyridine-3-carboxamide]"
< 10 nM,++ (++=100 to 499),< 10 nM,100 to 1000 nM,"CCC(C)CNC(=O)c1cncc(-c2cc(F)cc(F)c2)c1N1CC[C@](C)(N)C1 (stereo partly drawn) [1-57, 4-[(3S)-3-amino-3-methylpyrrolidin-1-yl]-5-(3,5-difluorophenyl)-N-(2-methylbutyl)pyridine-3-carboxamide]"
< 10 nM,+++ (+++=>500),< 10 nM,100 to 1000 nM,"CCC(CC)CNC(=O)c1cncc(-c2cc(F)cc(F)c2)c1N1CC[C@](C)(N)C1 [1-58, 4-[(3S)-3-amino-3-methylpyrrolidin-1-yl]-5-(3,5-difluorophenyl)-N-(2-ethylbutyl)pyridine-3-carboxamide]"
< 10 nM,+++ (+++=>500),< 10 nM,> 1000 nM,"N[C@H]1CCN(c2c(C(=O)NC(C3CC3)C3CC3)cncc2-c2cc(F)cc(Cl)c2)C1 [1-61, 4-[(3S)-3-aminopyrrolidin-1-yl]-5-(3-chloro-5-fluorophenyl)-N-(dicyclopropylmethyl)pyridine-3-carboxamide]"
< 10 nM,+++ (+++=>500),< 10 nM,> 1000 nM,"N#Cc1ncc(C(=O)NC23CC(C2)C3)c(N2CC[C@H](N)C2)c1-c1cc(F)cc(F)c1 [1-64, 4-[(3S)-3-aminopyrrolidin-1-yl]-N-{bicyclo[1.1.1]pentan-1-yl}-6-cyano-5-(3,5-difluorophenyl)pyridine-3-carboxamide]"
< 10 nM,+++ (+++=>500),< 10 nM,> 1000 nM,"N#Cc1ncc(C(=O)NC23CC(C2)C3)c(N2CC[C@H](N)C2)c1-c1ccc(F)c(F)c1 [1-66, 4-[(3S)-3-aminopyrrolidin-1-yl]-N-{bicyclo[1.1.1]pentan-1-yl}-6-cyano-5-(3,4-difluorophenyl)pyridine-3-carboxamide]"
